In US20090203785A1, “METHOD AND PROCESS FOR PRODUCING YOUTHFUL-APPEARING, SMALL-PORED, AND SMOOTH SKIN” (priority 2002, published 2009):

System: acne vulgaris
Test: topical retinoic acid plus laser-induced explosion of carbon particles on the skin of a patient with acne vulgaris (FIG. 4)
Type: in vivo
Conditions: combination with exploding carbon particles (Q-switched laser); after first six months of treatment; one patient
Source text: In the first step 40, pre-treatment is initiated with topical retinoic acid applied to the skin at least twice per week. The concentration of retinoic acid in the topical formulation is between about 0.05% to 1% preferably about 0.1%. […] In the next step 41, a solution of carbon particles in baby oil is applied to the skin. The carbon particle-oil ratio may range from about 1:1 to 1:9, preferably 1:4, i.e., about 25 percent carbon particles suspended in about 75 percent oil by weight. In the next steps 42 and 43 a laser beam is scanned over the skin treated with the carbon particle solution so as to clean substantially all of the carbon particles from the skin surface by exploding or fracturing the carbon particles. This scanning process takes from about 2 to 10 minutes to complete on the face, usually about 4 minutes, exposing the carbon particles only to 1 or 2 pulses of laser light.
The wave length of the radiation may range from about 800 nM to 1200 nM, preferably about 1064 nM. The frequency of the pulses from the laser range from about 1 to 20 per second, preferably, about 10 per second. The duration of each pulse ranges from about 0.001 to 1 microseconds, preferably about 0.1 microseconds. The fluence or exposure of the skin treated with the carbon particles ranges from about 1 to 3 J/cm^2. […]

CC1=C(/C=C/C(C)=C/C=C/C(C)=C/C(=O)O)C(C)(C)CCC1 [retinoic acid]
state of the epidermis / stratum corneum after treatment: leaving the epidermis intact and normal, with no removal of stratum corneum
